From patent publication US8685999B2, “Beta carboline sulphonylurea derivatives as EP4 receptor antagonists” (Merck Sharp & Dohme Corp., priority 2008, dated 2014)
Like-named read-outs stand apart in the source and are kept apart here.

Target: T1, EP4 (Homo sapiens, UniProt P35408)
T1 construct: expressed in transfected cells; membranes prepared by differential centrifugation
Assay: Prostanoid receptor binding assay (radioligand displacement binding assay)
Description: Prostanoid receptor cDNAs corresponding to full length coding sequences are subcloned into the appropriate sites of mammalian expression vectors and transfected into HEK 293(ebna) cells. HEK 293(ebna) cells expressing the individual cDNAs are grown under selection and individual colonies are isolated after 2-3 weeks of growth using the cloning ring method and subsequently expanded into clonal cell lines.
Transfected HEK 293(ebna) cells are maintained in culture, harvested and membranes are prepared by differential centrifugation, following lysis of the cells in the presence of protease inhibitors, for use in receptor binding assays. Prostanoid receptor binding assays (for DP1, DP2 (CRTH2), EP1, EP2, EP3-III, EP4, FP, IP, and TP) are performed in 10 mM MES/KOH (pH 6.0) (EPs, FP and TP) or 10 mM HEPES/KOH (pH 7.4) (DPs and IP), containing 1 mM EDTA, 2.5-30 mM divalent cation and the appropriate radio-ligand. Synthetic compounds are added in DMSO which is kept constant at 1% (v/v) in all incubations. The reaction is initiated by addition of membrane protein. Non-specific binding is determined in the presence of 10 μM of the corresponding non-radioactive prostanoid. Incubations are conducted for 60-120 min at room temperature or 30° C. and terminated by rapid filtration. Specific binding is calculated by subtracting non specific binding from total binding. The residual specific binding at each ligand concentration is calculated and expressed as a function of ligand concentration in order to construct sigmoidal concentration-response curves. The binding affinity of the compounds is determined by calculating the equilibrium inhibition constant (Ki) from the equation Ki=InPt/1+[radio-ligand]/Kd where Kd is the equilibrium dissociation constant for the radio-ligand:receptor interaction and InPt is the inflection point of the dose-response curves.
Abramovitz, M. et al., Biochem, Biophys. Acta, 2000, 1483, pp. 285.

[1] = column marked X when IC50 < 1, read-out: IC50 (nm) X < 1
[2] = radioligand displacement binding assay, read-out: IC50

T1 sequence (P35408 whole entry): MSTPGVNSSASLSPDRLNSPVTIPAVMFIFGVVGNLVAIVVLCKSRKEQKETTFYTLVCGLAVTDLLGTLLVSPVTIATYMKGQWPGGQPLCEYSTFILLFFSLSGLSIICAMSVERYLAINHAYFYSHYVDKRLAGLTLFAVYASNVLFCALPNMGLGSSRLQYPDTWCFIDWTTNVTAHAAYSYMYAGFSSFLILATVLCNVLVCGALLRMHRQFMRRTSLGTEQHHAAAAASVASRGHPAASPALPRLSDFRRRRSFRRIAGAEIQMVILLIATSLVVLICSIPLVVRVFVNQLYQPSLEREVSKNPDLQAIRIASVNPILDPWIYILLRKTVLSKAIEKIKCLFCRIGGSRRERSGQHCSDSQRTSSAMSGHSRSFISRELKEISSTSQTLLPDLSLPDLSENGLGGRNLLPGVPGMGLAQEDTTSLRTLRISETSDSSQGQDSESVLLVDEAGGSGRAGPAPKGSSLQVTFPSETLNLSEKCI

Structure (SMILES) | IC50 [1] [nM] | further results
CN1CCc2c(n(-c3ccc(CCNC(=O)NS(=O)(=O)c4ccc(Cl)cc4)cc3)c3ccc(-c4ccccc4)cc23)C1=O [Example 1-8, 4-chloro-N-[({2-[4-(2-methyl-1-oxo-6-phenyl-1,2,3,4-tetrahydro-9H-beta-carbolin-9-yl)phenyl]ethyl}amino)carbonyl]benzenesulfonamide] | < 1 | –
CN1CCc2c(n(-c3ccc(CC4(NC(=O)NS(=O)(=O)c5ccc(Cl)cc5)CC4)cc3)c3ccc(-c4ccccc4F)cc23)C1=O [Example 1-23, 4-chloro-N-{[(1-{4-[6-(2-fluorophenyl)-2-methyl-1-oxo-1,2,3,4-tetrahydro-9H-beta-carbolin-9-yl]benzyl}cyclopropyl)amino]carbonyl}benzenesulfonamide] | < 1 | –
CN1CCc2c(n(-c3ccc(CCNC(=O)NS(=O)(=O)c4ccc(Cl)cc4)cc3)c3c(Cl)cccc23)C1=O [Example 1-20, 4-chloro-N-[({2-[4-(8-chloro-2-methyl-1-oxo-1,2,3,4-tetrahydro-9H-beta-carbolin-9-yl)phenyl]ethyl}amino)carbonyl]benzenesulfonamide] | – | IC50 (column marked X when IC50 > 5, read-out: IC50 (nm) X > 5): > 5 nM; IC50 [2]: > 5 nM
CN1CCc2c(n(-c3ccc(CC4(NC(=O)NS(=O)(=O)c5ccc(Cl)cc5)CC4)cc3)c3ccc(-c4ccccc4)cc23)C1=O [Example 1-1, 4-chloro-N-[({1-[4-(2-methyl-1-oxo-6-phenyl-1,2,3,4-tetrahydro-9H-beta-carbolin-9-yl)benzyl]cyclopropyl}amino)carbonyl]benzenesulfonamide] | – | IC50 (column marked X when IC50 between 1 and 5, read-out: IC50 (nm) 1 < X < 5): 1 to 5 nM; IC50 [2]: 1 to 5 nM
CN1CCc2c(n(-c3ccc(CCNC(=O)NS(=O)(=O)c4ccc(Cl)cc4)cc3)c3cccc(-c4ccccc4)c23)C1=O [Example 1-17, 4-chloro-N-[({2-[4-(2-methyl-1-oxo-5-phenyl-1,2,3,4-tetrahydro-9H-beta-carbolin-9-yl)phenyl]ethyl}amino)carbonyl]benzenesulfonamide] | < 1 | –

Further lines, with some results ahead:

IC50 [1] [nM] | Structure (SMILES) | further results
< 1 | CN1CCc2c(n(-c3ccc(CC4(NC(=O)NS(=O)(=O)c5ccc(Cl)cc5)CC4)cc3)c3ccc(-c4ccsc4)cc23)C1=O [Example 1-25, 4-chloro-N-{[(1-{4-[2-methyl-1-oxo-6-(3-thienyl)-1,2,3,4-tetrahydro-9H-beta-carbolin-9-yl]benzyl}cyclopropyl)amino]carbonyl}benzenesulfonamide] | –
< 1 | CN1CCc2c(n(-c3ccc(CC4(NC(=O)NS(=O)(=O)c5ccc(Cl)cc5)CC4)cc3)c3ccc(C4CC4)cc23)C1=O [Example 2-1, 4-chloro-N-[({1-[4-(6-cyclopropyl-2-methyl-1-oxo-1,2,3,4-tetrahydro-9H-beta-carbolin-9-yl)benzyl]cyclopropyl}amino)carbonyl]benzenesulfonamide] | –
< 1 | CN1CCc2c(n(-c3ccc(CCNC(=O)NS(=O)(=O)c4ccc(Cl)cc4)cc3)c3ccc(S(C)(=O)=O)cc23)C1=O [Example 1-31, 4-chloro-N-{[(2-{4-[2-methyl-6-(methylsulfonyl)-1-oxo-1,2,3,4-tetrahydro-9H-beta-carbolin-9-yl]phenyl}ethyl)amino]carbonyl}benzenesulfonamide] | –
< 1 | CN1CCc2c(n(-c3ccc(CC4(NC(=O)NS(=O)(=O)c5ccc(Cl)cc5)CC4)cc3)c3ccc(C(=O)O)cc23)C1=O [Example 3-3, 9-[4-({1-[({[(4-chlorophenyl)sulfonyl]amino}carbonyl)amino]cyclopropyl}methyl)phenyl]-2-methyl-1-oxo-2,3,4,9-tetrahydro-1H-beta-carboline-6-carboxylic acid] | –
< 1 | Cc1cc(C)c2c3c(n(-c4ccc(CC5(NC(=O)NS(=O)(=O)c6ccc(Cl)cc6)CC5)cc4)c2c1)C(=O)N(C)CC3 [Example 1-28, 4-chloro-N-[({1-[4-(2,5,7-trimethyl-1-oxo-1,2,3,4-tetrahydro-9H-beta-carbolin-9-yl)benzyl]cyclopropyl}amino)carbonyl]benzenesulfonamide] | –
